Experimental data from ChEMBL document CHEMBL5505961, “RIPK1 inhibitors: A key to unlocking the potential of necroptosis in drug development” (Eur J Med Chem, 2024).

Columns and labels:
Jurkat [1] = assay: cells; details: Homo sapiens, 48 h
Jurkat [2] = assay: cells; details: Homo sapiens, 24 h
[3] = molecular target: T1, Eukaryotic translation initiation factor 2-alpha kinase 3 (Homo sapiens, UniProt Q9NZJ5)
T1 sequence (Q9NZJ5 whole entry): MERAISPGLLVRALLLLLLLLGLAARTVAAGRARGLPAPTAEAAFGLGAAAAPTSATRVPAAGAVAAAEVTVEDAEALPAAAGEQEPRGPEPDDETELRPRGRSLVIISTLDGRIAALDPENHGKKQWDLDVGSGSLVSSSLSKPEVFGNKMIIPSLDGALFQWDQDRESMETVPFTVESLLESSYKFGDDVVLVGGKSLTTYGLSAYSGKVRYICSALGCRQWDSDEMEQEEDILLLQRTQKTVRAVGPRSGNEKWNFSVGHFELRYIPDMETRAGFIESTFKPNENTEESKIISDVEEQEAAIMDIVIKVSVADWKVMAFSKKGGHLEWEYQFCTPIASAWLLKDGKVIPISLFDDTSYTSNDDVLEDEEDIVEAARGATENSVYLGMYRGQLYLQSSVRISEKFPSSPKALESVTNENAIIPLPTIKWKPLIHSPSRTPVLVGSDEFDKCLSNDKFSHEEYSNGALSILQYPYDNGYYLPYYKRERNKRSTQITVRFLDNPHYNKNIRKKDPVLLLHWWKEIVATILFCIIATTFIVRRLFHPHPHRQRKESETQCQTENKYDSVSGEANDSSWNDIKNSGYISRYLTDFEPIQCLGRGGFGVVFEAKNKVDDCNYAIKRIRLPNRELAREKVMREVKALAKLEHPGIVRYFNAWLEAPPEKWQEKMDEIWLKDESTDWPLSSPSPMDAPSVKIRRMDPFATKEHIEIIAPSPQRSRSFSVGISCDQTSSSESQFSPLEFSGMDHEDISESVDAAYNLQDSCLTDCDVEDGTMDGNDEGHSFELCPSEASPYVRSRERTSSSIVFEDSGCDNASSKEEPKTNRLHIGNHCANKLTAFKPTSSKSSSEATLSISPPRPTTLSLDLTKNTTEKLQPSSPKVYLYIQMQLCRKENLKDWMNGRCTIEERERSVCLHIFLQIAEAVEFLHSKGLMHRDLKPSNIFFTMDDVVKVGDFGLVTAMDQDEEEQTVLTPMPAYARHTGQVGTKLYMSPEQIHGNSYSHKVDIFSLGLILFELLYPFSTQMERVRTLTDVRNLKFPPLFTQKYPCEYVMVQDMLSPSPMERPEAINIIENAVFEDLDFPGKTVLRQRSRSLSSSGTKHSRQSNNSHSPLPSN

[4] = molecular target: T2, Receptor-interacting serine/threonine-protein kinase 1 (Homo sapiens, UniProt Q13546)
T2 sequence (Q13546 whole entry): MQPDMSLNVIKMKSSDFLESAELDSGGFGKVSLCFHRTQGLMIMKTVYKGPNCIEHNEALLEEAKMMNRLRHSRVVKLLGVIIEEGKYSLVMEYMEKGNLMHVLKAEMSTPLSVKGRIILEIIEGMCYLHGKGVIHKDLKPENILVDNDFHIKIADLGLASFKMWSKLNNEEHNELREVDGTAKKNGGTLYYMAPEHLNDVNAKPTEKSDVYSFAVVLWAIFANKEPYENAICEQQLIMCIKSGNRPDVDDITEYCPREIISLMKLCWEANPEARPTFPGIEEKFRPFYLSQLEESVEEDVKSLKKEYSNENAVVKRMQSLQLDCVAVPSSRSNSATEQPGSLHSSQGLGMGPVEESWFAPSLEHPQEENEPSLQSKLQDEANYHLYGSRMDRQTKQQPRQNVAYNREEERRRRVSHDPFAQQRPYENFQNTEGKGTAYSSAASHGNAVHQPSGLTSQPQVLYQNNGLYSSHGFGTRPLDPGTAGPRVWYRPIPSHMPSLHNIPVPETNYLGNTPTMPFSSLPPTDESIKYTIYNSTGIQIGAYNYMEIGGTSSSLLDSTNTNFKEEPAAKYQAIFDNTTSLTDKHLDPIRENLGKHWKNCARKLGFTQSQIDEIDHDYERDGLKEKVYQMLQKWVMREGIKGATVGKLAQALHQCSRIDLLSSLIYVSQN

HT-29 [5] = assay: cells; details: Homo sapiens, HT-29, 48 h
U-937 = assay: cells; details: Homo sapiens, U-937, 48 h
MEF = assay: cells; details: Mus musculus, 48 h
in vitro [6] = details: mouse, L929 cells
clinical = details: human
[7] = molecular target: T2, Receptor-interacting serine/threonine-protein kinase 1; remark: listed apart in the source
[8] = molecular target: T2, Receptor-interacting serine/threonine-protein kinase 1; remark: listed apart in the source
cells = details: Homo sapiens, HT-29, 1 h
[9] = molecular target: T2, Receptor-interacting serine/threonine-protein kinase 1; assay: biochemical
[10] = molecular target: T2, Receptor-interacting serine/threonine-protein kinase 1; remark: listed apart in the source
HT-29 [11] = assay: cells; details: Homo sapiens, HT-29, 24 h
in vitro [12] = details: mouse, liver microsomes
[13] = molecular target: T2, Receptor-interacting serine/threonine-protein kinase 1; remark: listed apart in the source
L929 = assay: cells; details: Mus musculus, L929, 24 h
Aurora kinase A = molecular target: T3, Aurora kinase A (Homo sapiens, UniProt O14965)
T3 sequence (O14965 whole entry): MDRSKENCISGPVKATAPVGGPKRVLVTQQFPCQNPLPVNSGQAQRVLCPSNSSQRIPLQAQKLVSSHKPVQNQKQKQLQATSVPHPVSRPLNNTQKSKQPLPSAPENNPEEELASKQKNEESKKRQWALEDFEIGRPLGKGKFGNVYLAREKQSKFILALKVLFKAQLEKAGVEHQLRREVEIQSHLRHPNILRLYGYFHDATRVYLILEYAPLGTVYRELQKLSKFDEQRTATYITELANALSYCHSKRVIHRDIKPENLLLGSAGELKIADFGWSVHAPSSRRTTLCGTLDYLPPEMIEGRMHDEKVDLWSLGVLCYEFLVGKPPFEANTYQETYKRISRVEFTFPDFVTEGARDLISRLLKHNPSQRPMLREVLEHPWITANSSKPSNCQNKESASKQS

HT-29 [14] = assay: cells; details: Homo sapiens, HT-29, 24 h; remark: listed apart in the source

With Cc1ccc(C2CC(=O)NC(SCC(=O)Nc3nccs3)=C2C#N)cc1 (stereo unspecified) as the molecule, how does the IC50 (Jurkat [1]) read?
The IC50 was 740 nM.

Which IC50 (Jurkat [2]) does the source give for CN1C(=O)NC(Cc2c[nH]c3ccccc23)C1=O (stereo unspecified) here?
Its IC50 is 210 nM.

Which results are given for Cc1cccc(CC(=O)N2CCc3cc(-c4cn(C)c5ncnc(N)c45)ccc32)n1?
IC50 [3]: 9.7 nM; IC50 [4]: 69.1 nM

What does the source list for Cn1cc(-c2ccc3c(c2)CCN3C(=O)Cc2cccc(C(F)(F)F)n2)c2c(N)ncnc21?
IC50 [3]: 3.8 nM; IC50 [4]: 18.2 nM

With CC(=O)Nc1nc2ccc(-c3cnc(Cl)c(NC(=O)Cc4ccccc4)c3)cc2s1 as the molecule, how does the IC50 [4] read?
The IC50 was 18.2 nM.

And the EC50 (HT-29 [5])?
The EC50 was 1200 nM.

What about the EC50 (U-937) of the same molecule?
The EC50 was 1330 nM.

What about the EC50 (MEF) of the same molecule?
The EC50 was 950 nM.

What about the EC50 at 48 h (in vitro [6]) of the same molecule?
The EC50 at 48 h was 760 nM.

With CN1C(=O)N[C@@H](Cc2c[nH]c3c(Cl)cccc23)C1=O as the molecule, how does the half-life (clinical) read?
The half-life was 1 h.

Which IC50 (Jurkat [2]) does the source give for CN1C(=O)C(Cc2c[nH]c3c(Cl)cccc23)NC1=S (stereo unspecified) here?
The IC50 was 180 nM.

Which IC50 [7] does the source give for Cc1cc(Nc2cc(N3CCN(C)CC3)nc(Nc3ccc(NC(=O)C4CC4)cc3)n2)n[nH]1 here?
Its IC50 is 170 nM.

With O=C(c1cc2c(-c3ccc(F)cc3)cccc2s1)N1CCOCC1 as the molecule, how does the IC50 [8] read?
The IC50 was 110 nM.

Which EC50 (cells) does the source give for CCCCNc1nc2ccc([N+](=O)[O-])cc2[nH]1 here?
Its EC50 is 1700 nM.

Which IC50 [9] does the source give for O=C(c1ccc(-c2cc3cccnc3[nH]2)cc1)N1CCOCC1 here?
The IC50 was 88000 nM.

With O=C(Nc1cn2cc(-c3cnc4c(c3)N(C(=O)OC3CCOCC3)CC4)ccc2n1)C1CC1 as the molecule, how does the Kd [10] read?
Its Kd is 8.7 nM.

Which Kd [10] does the source give for O=C(NC1CCOCC1)c1nsc2ncc(-c3ccc4nc(NC(=O)C5CC5)sc4c3)cc12 here?
The Kd was 13 nM.

What about the EC50 (HT-29 [11]) of the same molecule?
Its EC50 is 5 nM.

What about the half-life (in vitro [12]) of the same molecule?
Its half-life is greater than 1.5 h.

What about the IC50 [13] of the same molecule?
The IC50 was 5.8 nM.

What about the EC50 (L929) of the same molecule?
The EC50 was 1.9 nM.

What does the source list for Cc1cc(Nc2cc(N3CCNCC3)nc(Nc3ccc(NC(=O)C4CC4)cc3)n2)n[nH]1?
IC50 (Aurora kinase A): 430 nM; IC50 [7]: 160 nM

For O=[N+]([O-])c1ccn(Cc2ccc(Cl)cc2Cl)n1, which EC50 (HT-29 [14]) is on record?
The EC50 was 1050 nM.
